Experimental data as given in the SangsterLogP compilation.

experiment: method code SF, from DOI: 10.1002/tera.1420200312, PMID: 120615; conditions: pH 7.4

Point of comparison: `Cc1cc(O)c(C(C)C)cc1Cl`, logD 3.92. Against it:
- CC/C(=C(/CC)c1ccc(O)cc1)c1ccc(O)cc1 — higher, 4.76
- Cc1ccccc1O — lower, 1.93

experiment: not given; conditions: not given

Point of comparison: `CCC(=O)O`, logP 0.32. Against it:
- CCCCC(=O)O — higher, 1.39
- O=C(O)c1cc(I)cc(I)c1O — higher, 4.2
- C=CCCCCCCCCC(=O)O — higher, 3.86
- CCCCCCCC(=O)O — higher, 3.05
- O=C(Nc1ccccc1)c1ccccc1O — higher, 3.25
- O=C(O)c1cccnc1 — lower, -0.46
- Oc1ccc(Cl)cc1Cc1cc(Cl)ccc1O — higher, 4.26
